Measured values taken from US20160074298A1, “POLYPHENOL/FLAVONOID COMPOSITIONS AND METHODS OF FORMULATING ORAL HYGIENIC PRODUCTS” (VIZURI HEALTH SCIENCES LLC, priority 2014, published 2016).
One block for each compound: values may come before it.

Tests used:
[1] = Heat solubilization in Kolliphor RH-40; format: physicochemical
Source text: Step 1. […] Step 3. […] Step 4. […] About 5% solution was stable. Step 1. […] Step 3.

[2] = Saliva concentrations of chronic 1% apigenin toothpaste users (Example 12); format: in vivo, human; conditions: chronic users of PeroxiCare with 1% apigenin
Experimental: Two subjects who have used PeroxiCare® with apigenin at a 1% concentration on a chronic basis provided saliva samples at:
(§1) Saliva was collected at each time point in 50 ml Falcon tubes and immediately transferred to a freezer. All samples were transported to Tufts University within 24 hours of collection. Apigenin in saliva was quantified using high performance liquid chromatograph (HPLC) with electrochemical detection (ECD). Apigenin in 1 ml saliva was extracted using 3 ml acetonitrile. After 2 min of rigorous vortexing, the mixture was spun at 2,000 rpm for 15 min at 4° C. Supernatant was dried under N2 gas, reconstituted with mobile phase A, and analyzed for apigenin with HPLC-ECD. The limit of quantification (LOQ) for apigenin and EGCG in this assay is 15 and 25 ng/ml saliva, respectively.

[3] = Apigenin and EGCG in saliva following use of formulated toothpastes (Example 15); format: in vivo, human; conditions: formulated into a toothpaste product
Experimental: This is a clinical study testing the effect of using one of 3 toothpaste products formulated with apigenin and epigallocatechin gallate (EGCG) on the retention of these flavonoids in the saliva. Briefly, 3 subjects provided saliva samples:
Each subject brushed their teeth for 2 min using the sulcular brushing technique with ˜1.8 gm toothpaste on a new toothbrush. Each subject brushed with only one of 3 products:
Saliva was collected at each time point in 50 mL Falcon tubes and immediately transferred to a freezer. All samples were transported to Tufts University within 8 hours of collection.
as §1, with “Apigenin” for “Saliva was collected at each time point in 50 ml Falcon tubes and immediately transferred to a freezer. All samples were transported to Tufts University within 24 hours of collection. Apigenin”, “Apigenin and EGCG” for “Apigenin”, “1 mL” for “1 ml”

[4] = Stability in alkaline toothpaste with sodium bicarbonate and peroxide; format: physicochemical; conditions: high pH ~10-10.5; sodium bicarbonate, sodium carbonate peroxide, peroxide stabilizer
Experimental: It was experimentally determined that the toothpaste formulations containing both sodium bicarbonate and sodium carbonate peroxide together with stabilizing polymer formulations had pHs of ˜10-10.5. When aglycone flavone (i.e., apigenin and luteolin) powders were added to dentifrices including sodium bicarbonate, sodium bicarbonate peroxide and a peroxide stabilizer, it was also determined that soluble flavone sodium salts were formed that were stable in these highly oxidative peroxide compositions. The presence of stable soluble alkali metal flavone salts with highly anti-oxidant and anti-inflammatory properties in an emulsion formulation was totally unanticipated since aglycone flavones are prone to oxidative decomposition. Curcumin calcium chelate was fabricated and found to be stable in high pH PeroxiCare® toothpaste. Other curcumin chelates (Boron, Zn) were also found to be stable in this formulation, but were not tested in this study. This study was designed to determine if curcumin solubilized using either a heat solubilization or chelated salt technology performed in the same way as earlier results with the flavone apigenin. Vanillin is a breakdown product of curcumin and would be present if the curcumin had substantially decomposed (the lack of vanillin is indicative of a stable delivery of curcumin).

[5] = Water solubility of flavonoid classes (Table XXIII); format: physicochemical; conditions: 20° C.
[6] = Colorimetric retention of EGCG in saliva after brushing (Example 14); format: in vivo, human; conditions: PeroxiCare toothpaste with 0.1 wt. % EGCG and 0.1 wt. % ascorbic acid, pH ~10.5; saliva after brushing and rinsing
Experimental: A saliva sample with an EGCG containing alkaline toothpaste was obtained (1) before brushing and (2) 1 minute after brushing immediately after rinsing. The subject brushed for 2 minutes using the sulcular brushing technique with ˜1.8 gm toothpaste on a toothbrush.
A 5 ml sample of saliva was collected 10 minutes prior to brushing. Tooth brushing was conducted for 2 minutes with 1.8 gm of toothpaste applied to the brush. One minute after brushing, the oral cavity was rinsed with 50 ml of water. Following rinsing, about 8 ml of saliva was collected. The pH of the saliva was measured. In addition, the saliva samples were further made alkaline with the addition of NaOH crystals and the color of the resulting sample noted.

[7] = Stability of aqueous microemulsions as a function of pH; format: physicochemical; conditions: nonionic surfactants Polysorbate 80 and Cremophor/Kolliphor RH-40
Source text: Stable microemulsions with apigenin and the nonionic surfactants, Polysorbate 80 and Cremophor/Kolliphor RH-40, were achieved provided a pH level of 8.0 to 8.5 was maintained. For luteolin, it as determined that a pH of 7 was required to maintain a stable aqueous microemulsion; and for resveratrol, a pH of >4.5 to 7.5.

[8] = Solubilization in Listerine mouth rinse as sodium salt; format: physicochemical
Experimental: 100 Grams of the Listerine® Resveratrol Containing Mouth Rinse Formulation was Prepared as Follows: • 1. 98.4 grams of the Listerine® caramel colored mouth rinse was added to a 300 ml Pyrex glass beaker. […] About 0.2 grams of fine NaOH crystals were added to the mixture from Step 2 and thoroughly mixed. A uniformly caramel colored blend resulted with a measured pH of ˜10. […] The pH of the mixture from Step 3 was adjusted to a pH 6.5 by the addition of about 0.2 grams of citric acid crystals. […] • 1. 98.6 grams of the Listerine® caramel colored mouthrinse was added to a 300 ml Pyrex glass beaker. […] About 0.2 grams of fine NaOH crystals were added to the mixture from Step 2 and thoroughly mixed. A uniformly caramel colored blend resulted with a measured pH of ˜10. […] The pH of the mixture from Step 2 was adjusted to a pH 8 by the addition of about 0.2 grams of citric acid crystals.

Compound: O=c1cc(-c2ccc(O)cc2)oc2cc(O)cc(O)c12 [Apigenin, 4′,5,7,-trihydroxyflavone]
stable apigenin concentrate in PS80 (5.0 wt. % apigenin in PS80, heated approaching 300 degree C, cooled to ambient): 50 mg/mL | apigenin solubilized in RH-40 [1]: more than 5% | persistence of apigenin levels in saliva post-brushing [2]: at least 8 hours | time found in saliva following toothpaste use [3]: at least one hour | stability in alkaline peroxide toothpaste (PeroxiCare) [4]: stable

Compound: O.Oc1cc(O)c2c(c1)O[C@H](c1ccc(O)c(O)c1)[C@@H](O)C2 [Catechin]
PS80 Solubility (20° C., thermal processing method, not the maximum solubility levels): 50 mg/mL | Water Solubility [5]: ~5 mg/mL

Compound: O=c1cc(-c2ccc(O)c(O)c2)oc2cc(O)cc(O)c12 [luteolin, 3′,4′,5,7-tetrahydroxyflavone]
pH required to maintain a stable aqueous microemulsion [7]: 7 | luteolin concentration of transparent solution ([8]; adjusted to pH 8): 1.5 mg/mL | stability in alkaline peroxide toothpaste (PeroxiCare) [4]: stable

Other lines, results leading:

time found in saliva following toothpaste use [3]: at least one hour | retention of EGCG in saliva by color change on alkalizing [6]: retained after brushing
Compound: O=C(O[C@@H]1Cc2c(O)cc(O)cc2O[C@@H]1c1cc(O)c(O)c(O)c1)c1cc(O)c(O)c(O)c1 [Epigallocatechin Gallate (EGCG), Epigallocatechin gallate]

resveratrol concentration of transparent solution ([8]; adjusted to pH 6.5): 1.2 mg/mL
Compound: Oc1ccc(C=Cc2cc(O)cc(O)c2)cc1 [resveratrol]

behaviour in Kolliphor RH-40 ([1]; equivalent concentration of 20% curcumin): precipitates out | stable solution in Kolliphor RH-40 ([1]; heat solubilized): About 5% | stability in alkaline peroxide toothpaste (PeroxiCare) [4]: stable
Compound: calcium-curcumin chelate
